Laboratory results as given in patent US9314026B2, “Heterocyclylpyri(mi)dinylpyrazole” (Bayer Intellectual Property GmbH, priority 2011, dated 2016).

Key:
[1] = determination of the log P values by HPLC on a reverse phase column (C18), EEC-Directive 79/831 Annex V.A8; assay type: physicochemical
Method in brief: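 Log P determined per EEC-Directive 79/831 Annex V.A8 by reverse-phase (C18) HPLC (methods A, B) or UPLC (method C), with mass detection.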

Puccinia recondita = assay: Puccinia test (wheat)/preventive; assay type: in vivo; conditions: 500 ppm of active ingredient, preventive, evaluated 7-9 days after inoculation, read-out: efficacy
Procedure: (§1) Puccinia Test (Wheat)/Preventive Solvent: 49 parts by weight of N,N-Dimethylformamide Emulsifier: 1 part by weight of Alkylarylpolyglycolether To produce a suitable preparation of active compound, 1 part by weight of active compound is mixed with the stated amounts of solvent and emulsifier, and the concentrate is diluted with water to the desired concentration. To test for preventive activity, young plants are sprayed with the preparation of active compound at the stated rate of application. One day after this treatment, the plants are inoculated with an aqueous spore suspension of Puccinia recondita.

Botrytis cinerea = assay: Botrytis test (beans)/preventive; assay type: in vivo; conditions: 48 h, 100 ppm of active ingredient, preventive, size of lesions evaluated 2 days after inoculation, read-out: efficacy
Procedure: (§2) Botrytis Test (Beans)/Preventive Solvent: 24.5 parts by weight of acetone • 24.5 parts by weight of dimethylacetamide Emulsifier: 1 part by weight of alkylaryl polyglycol ether To produce a suitable preparation of active compound, 1 part by weight of active compound is mixed with the stated amounts of solvent and emulsifier, and the concentrate is diluted with water to the desired concentration. To test for preventive activity, young plants are sprayed with the preparation of active compound. After the spray coating has dried on, 2 small pieces of agar covered with growth of Botrytis cinerea are placed on each leaf.

Phytophthora infestans = assay: whole plant or invertebrate; assay type: in vivo; conditions: 72 h, read-out: efficacy
Pyrenophora teres = assay: Pyrenophora test (barley)/preventive; assay type: in vivo; conditions: 500 ppm of active ingredient, preventive, evaluated 7-9 days after inoculation, read-out: efficacy
Procedure: as §1, with “Pyrenophora” for “Puccinia”, “(Barley)/Preventive” for “(Wheat)/Preventive”, “Pyrenophora teres.” for “Puccinia recondita.”

[2] = tested on: Fusarium nivale (var. majus); assay: Fusarium nivale (var. majus)-test (wheat)/preventive; assay type: in vivo; conditions: Microdochium nivale, 120 h, 500 ppm of active ingredient, preventive, evaluated 5 days after inoculation, read-out: efficacy
Procedure: (§3) Fusarium nivale (Var. Majus)-Test (Wheat)/Preventive Solvent: 49 parts by weight of n,n-dimethylacetamid Emulsifier: 1 part by weight of alkylaryl polyglycol ether To produce a suitable preparation of active compound, 1 part by weight of active compound or active compound combination is mixed with the stated amounts of solvent and emulsifier, and the concentrate is diluted with water to the desired concentration. To test for preventive activity, young plants are sprayed with the preparation of active compound or active compound combination at the stated rate of application. After the spray coating has been dried, the plants are slightly injured by using a sandblast and afterwards they are sprayed with a conidia suspension of Fusarium nivale (var. majus).

Venturia inaequalis = assay: Venturia test (apples)/preventive; assay type: in vivo; conditions: 100 ppm of active ingredient, preventive, evaluated 10 days after inoculation
Procedure: as §2, with “Venturia” for “Botrytis”, “(Apples)/Preventive” for “(Beans)/Preventive”, “compound at” for “compound. After”, “stated rate” for “spray coating has dried on, 2 small pieces”, “application.” for “agar covered with growth of Botrytis cinerea are placed on each leaf.”

Sphaerotheca fuliginea = assay: Sphaerotheca test (cucumber)/preventive; assay type: in vivo; conditions: Podosphaera fuliginea, 168 h, 500 ppm of active ingredient, preventive, evaluated 7 days after inoculation, 0% = untreated control, 100% = no disease, read-out: efficacy
Procedure: as §1, with “Sphaerotheca” for “Puccinia”, “(Cucumber)/Preventive” for “(Wheat)/Preventive”, “Sphaerotheca fuliginea.” for “Puccinia recondita.”

Pyricularia oryzae = assay: whole plant or invertebrate; assay type: in vivo; conditions: 168 h, read-out: efficacy
Fusarium graminearum = assay: whole plant or invertebrate; assay type: in vivo; conditions: in Hordeum vulgare, 120 h, read-out: efficacy
Leptosphaeria nodorum = assay: Leptosphaeria test (wheat)/preventive; assay type: in vivo; conditions: Parastagonospora nodorum, 500 ppm of active ingredient, preventive, evaluated 7-9 days after inoculation, read-out: efficacy
Procedure: as §1, with “Leptosphaeria Test (Wheat)/Preventive” for “Puccinia Test (Wheat)/Preventive”, “sprayed with a preparation of” for “sprayed with the preparation of”, “suspension of Leptosphaeria nodorum.” for “suspension of Puccinia recondita.”

Septoria tritici = assay: Septoria tritici-test (wheat)/preventive; assay type: in vivo; conditions: 500 ppm of active ingredient, preventive, evaluated 21 days after inoculation
Procedure: as §3, with “Septoria tritici-Test” for “Fusarium nivale (Var. Majus)-Test”, “are” for “are slightly injured by using a sandblast and afterwards they are”, “spore” for “conidia”, “Septoria tritici.” for “Fusarium nivale (var. majus).”

Alternaria solani = assay: Alternaria test (tomato)/preventive; assay type: in vivo; conditions: 168 h, 500 ppm of active ingredient, preventive, evaluated 7 days after inoculation, read-out: efficacy
Procedure: as §1, with “Alternaria” for “Puccinia”, “(Tomato)/Preventive” for “(Wheat)/Preventive”, “Alternaria solani. […] Then the plants are placed in an incubation cabinet at approximately 20° C. and a relative atmospheric humidity of 96%.” for “Puccinia recondita.”

Plasmopara viticola = assay: Plasmopara test (grapevines)/preventive; assay type: in vivo; conditions: 100 ppm of active ingredient, preventive, evaluated 6 days after inoculation
Procedure: Plasmopara Test (Grapevines)/Preventive Solvent: 24.5 parts by weight of acetone • 24.5 parts by weight of dimethylacetamide Emulsifier: 1 part by weight of alkylaryl polyglycol ether To produce a suitable preparation of active compound, 1 part by weight of active compound is mixed with the stated amounts of solvent and emulsifier, and the concentrate is diluted with water to the desired concentration. To test for preventive activity, young plants are sprayed with the preparation of active compound at the stated rate of application. […] The plants are then misted and placed for 1 day in an incubation cabinet.

Row | Structure (SMILES) | chromatographic logP [1] | pest or weed control at 500 ppm (Puccinia recondita) | pest or weed control at 100 ppm (Botrytis cinerea) | pest or weed control at 100 ppm (Phytophthora infestans) | pest or weed control at 500 ppm (Pyrenophora teres) | pest or weed control at 500 ppm [2] | efficacy (Venturia inaequalis) | pest or weed control at 500 ppm (Sphaerotheca fuliginea) | pest or weed control at 500 ppm (Pyricularia oryzae) | pest or weed control at 500 ppm (Fusarium graminearum) | pest or weed control at 500 ppm (Leptosphaeria nodorum) | efficacy (Septoria tritici) | pest or weed control at 500 ppm (Alternaria solani) | efficacy (Plasmopara viticola)
1 | CC(=O)N(C(C)=O)c1cc(-c2c(-c3ccccc3)nn3c2CCCC3)ccn1 [Example 2, N-acetyl-N-[4-(2-phenyl-4,5,6,7-tetrahydropyrazolo[1,5-a]pyridin-3-yl)pyridin-2-yl]acetamide] | 2.22 | 100% | 87% | 95% | 100% | 100% | 71% | 96% | 70% | 100% | 95% | 100% | 100% | 
2 | CCC(=O)N(C(=O)C(C)C)c1cc(-c2c(-c3ccc(F)cc3)nn3c2CCOC3C)ccn1 (centres unmarked) [Example 3, N-{4-[2-(4-fluorophenyl)-7-methyl-4,5-dihydropyrazolo[1,5-c][1,3]oxazin-3-yl]pyridin-2-yl}-2-methyl-N-propionylpropanamide] | 3.83 | 95% | 88% | 91% | 100% | 100% | 95% | 95% | 90% | 89% | 90% | 100% | 90% | 
3 | CC(=O)N(C(C)=O)c1cc(-c2c(-c3ccsc3)nn3c2CCCC3)ccn1 [Example 4, N-acetyl-N-{4-[2-(3-thienyl)-4,5,6,7-tetrahydropyrazolo[1,5-a]pyridin-3-yl]pyridin-2-yl}acetamide] | 2.18 |  | 95% | 95% | 95% |  | 95% |  | 95% |  | 95% |  | 90% | 
4 | CC(=O)N(C(C)=O)c1cc(-c2c(-c3cccs3)nn3c2CCCC3)ccn1 [Example 8, N-acetyl-N-{4-[2-(2-thienyl)-4,5,6,7-tetrahydropyrazolo[1,5-a]pyridin-3-yl]pyridin-2-yl}acetamide] | 2.18 | 89% |  | 83% | 100% | 92% |  | 95% | 95% | 88% | 89% |  | 89% | 
5 | CCC(=O)N(C(=O)C1CC1)c1cc(-c2c(-c3ccc(F)cc3)nn3c2CCC3)ccn1 [Example 9, N-{4-[2-(4-fluorophenyl)-5,6-dihydro-4H-pyrrolo[1,2-b]pyrazol-3-yl]pyridin-2-yl}-N-propionylcyclopropanecarboxamide] | 2.87 | 100% | 96% | 79% | 95% |  | 100% | 100% | 90% |  | 95% |  |  | 95%
6 | CC(=O)N(C(C)=O)c1cc(-c2c(-c3ccc(F)cc3)nn3c2CCOC3C)ccn1 (centres unmarked) [Example 10, N-acetyl-N-{4-[2-(4-fluorophenyl)-7-methyl-4,5-dihydropyrazolo[1,5-c][1,3]oxazin-3-yl]pyridin-2-yl}acetamide] | 2.56 | 95% |  |  | 95% | 100% |  | 95% |  | 94% | 90% | 80% | 90% | 
7 | CCOC(=O)N(C(=O)C1CC1)c1cc(-c2c(-c3ccc(F)cc3)nn3c2CCC3)ccn1 [Example 11, ethyl (cyclopropylcarbonyl){4-[2-(4-fluorophenyl)-5,6-dihydro-4H-pyrrolo[1,2-b]pyrazol-3-yl]pyridin-2-yl}carbamate] | 2.78 | 100% | 74% | 86% | 95% |  |  | 95% | 70% |  | 95% |  | 95% | 90%
8 | O=C(C1CC1)N(C(=O)C1CC1)c1cc(-c2c(-c3ccc(F)cc3)nn3c2CCC3)ccn1 [Example 12, N-(cyclopropylcarbonyl)-N-{4-[2-(4-fluorophenyl)-5,6-dihydro-4H-pyrrolo[1,2-b]pyrazol-3-yl]pyridin-2-yl}cyclopropanecarboxamide] | 2.91 | 95% |  |  | 95% |  |  | 100% | 80% |  | 95% |  | 80% | 
